US20090081636A1, “Pharmaceutical compositions for and methods of inhibiting HCV replication” (priority 2005, published 2009)
“Also recorded” adds a separate entry of the source.

What was measured:
NS3 protease domain = NS3 protease domain (Hepatitis C virus genotype 1b, UniProt Q9WMX2); test: Photo-affinity labeling binding assay, NS3 protease domain; set-up: species or system HCV; details: 3.3 μM protein
Method: (§1) To determine whether acylthiourea compounds bind to NS4A, a photo-affinity labeling is carried out, in which an [^3H] labeled photo-reactive azidoacylthiourea, 1-(5-Azido-benzofuran-2-carbonyl)-3-(4-pentyloxy-3-trifluoromethyl-phenyl)-thiourea, is mixed with synthetic NS4A at various molar ratios. The mixture is incubated at 31° C. for one hour. Samples are then illuminated by a UV lamp (254 nm wavelength) at room temperature for 7 minutes. After denaturing with equal volume of Laemmli buffer containing 5% mercaptoethanol at 99° C. for 5 minutes, samples are separated on a 10-20% SDS-PAGE. After electrophoresis, the gel is fixed with 30% methanol-10% acetic acid overnight. Then the gel is treated with 3H enhancer solution (PerkinElmer) at room temperature for one hour, and subsequently with water for 30 minutes, and dried under vacuum.
(§2) One band corresponds to NS4A monomer, which is also detectable with Coomassie blue staining (FIG. 3). […] Without being bound by any particular theory, it is believed that this band may be composed largely of polymer form or aggregates of NS4A. At the same time, full-length NS3 and NS3 protease domain is included in this binding assay.

full-length NS3 = full-length NS3 (Hepatitis C virus genotype 1b, UniProt Q9WMX2); test: Photo-affinity labeling binding assay, full-length NS3; set-up: species or system HCV; details: 3.3 μM protein
Sequence of full-length NS3 (Q9WMX2 1027-1657): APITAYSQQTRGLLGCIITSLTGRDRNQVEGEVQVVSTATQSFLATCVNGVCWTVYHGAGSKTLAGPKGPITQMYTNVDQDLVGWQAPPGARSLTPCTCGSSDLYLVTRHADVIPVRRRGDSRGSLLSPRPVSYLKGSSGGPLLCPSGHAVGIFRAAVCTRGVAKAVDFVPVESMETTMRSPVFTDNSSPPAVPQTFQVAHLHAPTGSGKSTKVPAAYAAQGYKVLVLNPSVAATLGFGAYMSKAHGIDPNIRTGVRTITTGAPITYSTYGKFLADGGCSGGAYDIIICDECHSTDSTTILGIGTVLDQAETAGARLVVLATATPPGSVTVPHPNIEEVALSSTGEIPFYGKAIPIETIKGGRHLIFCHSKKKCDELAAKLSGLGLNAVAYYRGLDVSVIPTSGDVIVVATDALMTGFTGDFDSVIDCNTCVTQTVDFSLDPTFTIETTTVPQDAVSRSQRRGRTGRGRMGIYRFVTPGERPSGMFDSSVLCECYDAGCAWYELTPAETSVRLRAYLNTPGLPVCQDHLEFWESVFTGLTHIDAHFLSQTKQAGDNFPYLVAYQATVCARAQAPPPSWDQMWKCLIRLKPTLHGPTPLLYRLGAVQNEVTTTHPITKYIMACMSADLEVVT
Method: as §1, §2

synthetic NS4A [1] = target: T1, synthetic NS4A (Hepatitis C virus genotype 1b, UniProt Q9WMX2); test: Photo-affinity labeling of synthetic NS4A; type: binding, HCV; details: [3H] labeled compound, UV 254 nm photolysis, SDS-PAGE
T1 construct: The full length of NS4A (54 amino acids) is synthesized; made in house
T1 sequence (Q9WMX2 1658-1711): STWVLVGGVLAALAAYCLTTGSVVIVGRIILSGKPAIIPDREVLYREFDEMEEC
Method: Experiments are undertaken to investigate the affinity and binding specificity of acylthiourea compounds to NS4A. The full length of NS4A (54 amino acids) is synthesized, and characterized with mass spectral analysis and HPLC profiling. An NS4A sample is then dissolved in 100% dimethylsulphoxide (DMSO) at a concentration of 2 μg/μl, and subjected to a 10-20% SDS-PAGE with a reducing reagent. A 6 kDa protein band, consistent with the size of NS4A, is detected in the gel following a Coomassie blue staining. The NS4A identity of this band is further confirmed by a Western blot with monoclonal anti-NS4A antibody.
as §1, with “Then the gel is treated with 3H enhancer solution (PerkinElmer) at room temperature for one hour, and subsequently with water for 30 minutes, and dried under vacuum.” left out

HCV replicon cells = test: HCV replicon assay; type: cell-based
Method: Cells expressing the HCV replicon are seeded onto the internal wells of 96-well plates at a density of 7,000 cells per well. One day later, different dilutions of the test compounds are added to corresponding wells and the plates are incubated in a CO2 incubator for 72 hours. After treatment, the cells are lysed with 70 μl RLN buffer per well (50 mM Tris-HCl [pH8.0], 140 mM NaCl, 1.5 mM MgCl2, 0.5% Nonidet P-40, 1,000 units/mL RNAsin and 1 mM […]). The total lysate is transferred to a new U bottom 96-well plate and nuclei and cell debris are pelleted with a brief spin (300×g for 3 minutes). 50 μl of supernatant is removed from the well and loaded directly onto manifold wells equipped with Nylon membranes. HCV RNA is hybridized at 58° C. overnight using a labeled HCV RNA probe containing a negative strand sequence complement to the NS5B region. Hybridization buffer is composed of 50% formamide, 5×SSPE, 1% SDS, 5×Denhart's solution, and sheared denatured salmon sperm DNA. Following hybridization, the membrane is washed with washing buffer (0.1×SSC, 0.1% SDS) at room temperature for two hours, then at 65° C. for 30 minutes. The radioactivity in each well is counted on a Microbeta counter and EC50 is calculated based on cpm.
Alternatively, HCV replicon cells are trypsinized for 5-10 minutes in a CO2 incubator. Then, cells are placed in a 15 mL tube, and are spun at 1000 rpm for 4 minutes and trypsin solution is removed. Cell pellets are washed once with PBS and spun 4 minutes at 1000 rpm.
Trypsinization and wash steps, supra, are conducted efficiently to minimize cell death. PBS is removed and cells are resuspended in 4 mL fresh PBS and cells are seeded at a dilution of 5000 cells per well to 96 well plates. Test compounds are diluted in 96 well U bottom plates with DMEM (high glucose) (BRL, Catalog #21063) supplemented with 10% FBS, L-glutamine, and non-essential amino acid. 100 uL of test compound is loaded into each well. […]
100 uL of development solution (TMB one-step substrate system) is added and plates are developed in the dark for 10 to 30 minutes. […] OD450 is measured.

synthetic NS4A [2] = target: T1, synthetic NS4A; test: Competition assay for NS4A binding against [3H] labeled azidoacylthiourea; set-up: species or system HCV
Method: as §1
To study the binding specificity of [^3H] labeled 1-(5-Azido-benzofuran-2-carbonyl)-3-(4-pentyloxy-3-trifluoromethyl-phenyl)-thiourea to synthetic NS4A, several structurally related compounds are used in the following competition assays. Non-labeled 1-(5-Azido-benzofuran-2-carbonyl)-3-(4-pentyloxy-3-trifluoromethyl-phenyl)-thiourea shares the same structure with [^3H] labeled 1-(5-Azido-benzofuran-2-carbonyl)-3-(4-pentyloxy-3-trifluoromethyl-phenyl)-thiourea. 1-(5-Azido-benzofuran-2-carbonyl)-3-(4-pentyloxy-3-trifluoromethyl-phenyl)-urea differs in structure from 1-(5-Azido-benzofuran-2-carbonyl)-3-(4-pentyloxy-3-trifluoromethyl-phenyl)-thiourea in that 1-(5-Azido-benzofuran-2-carbonyl)-3-(4-pentyloxy-3-trifluoromethyl-phenyl)-urea has a carbonyl group where 1-(5-Azido-benzofuran-2-carbonyl)-3-(4-pentyloxy-3-trifluoromethyl-phenyl)-thiourea has a thiocarbonyl group. […]

Sequence of NS3 protease domain (Q9WMX2 1027-1208): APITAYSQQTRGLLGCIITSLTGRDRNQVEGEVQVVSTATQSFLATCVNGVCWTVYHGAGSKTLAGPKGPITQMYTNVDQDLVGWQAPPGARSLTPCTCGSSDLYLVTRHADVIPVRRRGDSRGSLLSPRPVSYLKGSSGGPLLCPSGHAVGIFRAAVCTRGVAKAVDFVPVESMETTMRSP

SMILES	binding to NS3 protease domain (NS3 protease domain)	binding to full-length NS3 (full-length NS3)	binding to synthetic NS4A (synthetic NS4A [1])	anti-HCV activity in replicon cells (HCV replicon cells)	competition with [3H] labeled azidoacylthiourea for NS4A binding (synthetic NS4A [2])
CCCCCOc1ccc(NC(=S)NC(=O)c2cc3cc(N=[N+]=[N-])ccc3o2)cc1C(F)(F)F [1-(5-Azido-benzofuran-2-carbonyl)-3-(4-pentyloxy-3-trifluoromethyl-phenyl)-thiourea]	weak binding signals	weak binding signals	binds to synthetic NS4A; also recorded: two radioactive bands		
CCCCCOc1ccc(NC(=S)NC(=O)c2cc3ccccc3o2)cc1C(F)(F)F [1-(Benzofuran-2-carbonyl)-3-(4-pentyloxy-3-trifluoromethyl-phenyl)-thiourea]				exhibit anti-HCV activities	effectively compete
CCCCCOc1ccc(NC(=O)NC(=O)c2cc3cc(N=[N+]=[N-])ccc3o2)cc1C(F)(F)F [1-(5-Azido-benzofuran-2-carbonyl)-3-(4-pentyloxy-3-trifluoromethyl-phenyl)-urea]				does not exhibit any anti-HCV activity	does not compete; also recorded: abolish this competition capacity
CCCCCOc1ccc(NC(=S)NC(=O)c2cccnc2)cc1C(F)(F)F [1-(4-Pentyloxy-3-trifluoromethyl-phenyl)-3-(pyridine-3-carbonyl)-thiourea]				exhibit anti-HCV activities	effectively compete
